Reference: ChEMBL document CHEMBL1128789, “Constrained analogs of KCVFM with improved inhibitory properties against farnesyl transferase” (Bioorg Med Chem Lett, 1995)

Target: Protein farnesyltransferase (Rattus norvegicus, UniProt Q02293+Q04631)
Assay: Inhibition of farnesyl transferase (FTase) of rat brain

IC50 [µM]	SMILES
1	CSCC[C@H](NC(=O)[C@@H](NC(=O)[C@H](C(C)C)N(C)C(=O)[C@H](S)NC(=O)[C@H](N)CCCCN)c1ccccc1)C(=O)O
0.005	CSCC[C@H](NC(=O)[C@@H]1Cc2ccccc2CN1C(=O)[C@H](C(C)C)N(C)C(=O)[C@H](S)NC(=O)[C@H](N)CCCCN)C(=O)O
100	CSCC[C@H](NC(=O)[C@H]1Cc2ccccc2CN1C(=O)[C@H]1CCCN1C(=O)[C@H](CS)NC(=O)[C@@H](N)CCCCN)C(=O)O
1	CSCC[C@H](NC(=O)[C@@H](NC(=O)[C@@H](NC(=O)[C@H](S)NC(=O)[C@H](N)CCCCN)C(C)(C)C)c1ccccc1)C(=O)O
0.04	CSCC[C@H](NC(=O)[C@@H]1Cc2ccccc2CN1C(=O)[C@@H](NC(=O)[C@H](S)NC(=O)[C@H](N)CCCCN)C(C)(C)C)C(=O)O
1	CSCC[C@H](NC(=O)[C@H](Cc1ccccc1)NC(=O)[C@H](C(C)C)N(C)C(=O)[C@H](S)NC(=O)[C@H](N)CCCCN)C(=O)O
1	CSCC[C@H](NC(=O)[C@H](Cc1ccccc1)NC(=O)[C@@H](NC(=O)[C@H](S)NC(=O)[C@H](N)CCCCN)C(C)C)C(=O)O
0.02	CSCC[C@H](NC(=O)[C@@H]1Cc2ccccc2CN1C(=O)[C@@H](NC(=O)[C@H](S)NC(=O)C(N)CCCCN)C(C)C)C(=O)O (single isomer, unassigned)
2	CSCC[C@H](NC(=O)[C@@H]1Cc2ccccc2CN1C(=O)[C@@H]1CCCN1C(=O)[C@H](S)NC(=O)C(N)CCCCN)C(=O)O (single isomer, unassigned)
100	CSCC[C@H](NC(=O)[C@@H]1Cc2ccccc2CN1C(=O)C(NC(=O)[C@H](S)NC(=O)C(N)CCCCN)C(C)C)C(=O)O (single isomer, unassigned; form 1)
15	CSCC[C@H](NC(=O)[C@@H]1Cc2ccccc2CN1C(=O)C(NC(=O)[C@H](S)NC(=O)C(N)CCCCN)C(C)C)C(=O)O (single isomer, unassigned; form 2)
100	CSCC[C@H](NC(=O)[C@@H]1Cc2ccccc2CN1C(=O)[C@H](NC(=O)[C@H](CS)NC(=O)[C@@H](N)CCCCN)C(C)C)C(=O)O (stereo in doubt; form 1)
50	CSCC[C@H](NC(=O)[C@@H]1Cc2ccccc2CN1C(=O)[C@H](NC(=O)[C@H](CS)NC(=O)[C@@H](N)CCCCN)C(C)C)C(=O)O (stereo in doubt; form 2)
